Experimental data from patent US8791155B2, “Chroman derivatives” (Edison Pharmaceuticals, Inc., priority 2003, dated 2014).

Legend:
[1] = test system: release of the leukotriene LTB4 from MPRO cell line; assay: LTB4 assay (competitive ELISA); assay type: cell-based; settings: Mus musculus; 1 μM calcium ionophore A23187, 1 hour; read-out: EC50, inhibition of LTB4 production
Source text: This procedure was used for measuring the release of the leukotriene LTB4 from a neutrophil cell line using a competitive ELISA technique.
• MPRO cell line (ATCC, Catalog #CRL-11422) • Calciumionophore (A23187) (Sigma, Catalog #C7522) • Nordihydroguaiaretic acid (NDGA) (BioMol, Catalog #E1101-0001) • Retinoic Acid (all-trans) (ATRA) (Sigma, Catalog #95152) • Sterile, tissue-culture treated 96-well plates (Corning, Catalog #3614) Materials for LTB4 ELISA • Precoated (Mouse Anti-Rabbit IgG) EIA 96 Well Strip Plates (Cayman, Catalog #400004) • Leukotriene B4 AChE Tracer (Cayman Catalog #420110) • Leukotriene B4 EIA Antiserum (Cayman Catalog #420112) • Ellman's Reagent (Cayman Catalog #400050) • EIA Buffer Concentrate (10×) (Cayman Catalog #400060) • Wash Buffer Concentrate (400×) (Cayman Catalog #400062) • Plastic plate covers (Cayman Catalog #400012) Procedure
A mouse promyelocytic cell line (MPRO) was used in this assay. These cells are committed immature neutrophils that can be differentiated into mature neutrophils by treatment with 10 μM all-trans retinoic acid for 72 hours
Following 72 hours of differentiation, cells were stimulated with 1 μM of a calcium ionophore (A23187) in the presence or absence of test compound or vehicle for 1 hour at 370 C. After this time, supernatant was removed from the cells and the LTB4 levels were determined following manufacturer's instructions, using a Leukotriene B4 EIA kit from Cayman (Cat #520111)
The negative controls were media samples from differentiated but unstimulated cells.
The compounds were screened at 5 concentrations in quadruplicate starting at 10 μM

[2] = biological target: T1, human recombinant 5-lipoxygenase (Homo sapiens, UniProt P09917); assay: 5-Lipoxygenase enzyme assay; assay type: biochemical; settings: 70 μM arachidonic acid, pH 7.4, 10 minute incubation; read-out: IC50, inhibition of 5-Lipoxygenase
T1 construct: purchased Cayman 60402
T1 sequence (P09917 1-674): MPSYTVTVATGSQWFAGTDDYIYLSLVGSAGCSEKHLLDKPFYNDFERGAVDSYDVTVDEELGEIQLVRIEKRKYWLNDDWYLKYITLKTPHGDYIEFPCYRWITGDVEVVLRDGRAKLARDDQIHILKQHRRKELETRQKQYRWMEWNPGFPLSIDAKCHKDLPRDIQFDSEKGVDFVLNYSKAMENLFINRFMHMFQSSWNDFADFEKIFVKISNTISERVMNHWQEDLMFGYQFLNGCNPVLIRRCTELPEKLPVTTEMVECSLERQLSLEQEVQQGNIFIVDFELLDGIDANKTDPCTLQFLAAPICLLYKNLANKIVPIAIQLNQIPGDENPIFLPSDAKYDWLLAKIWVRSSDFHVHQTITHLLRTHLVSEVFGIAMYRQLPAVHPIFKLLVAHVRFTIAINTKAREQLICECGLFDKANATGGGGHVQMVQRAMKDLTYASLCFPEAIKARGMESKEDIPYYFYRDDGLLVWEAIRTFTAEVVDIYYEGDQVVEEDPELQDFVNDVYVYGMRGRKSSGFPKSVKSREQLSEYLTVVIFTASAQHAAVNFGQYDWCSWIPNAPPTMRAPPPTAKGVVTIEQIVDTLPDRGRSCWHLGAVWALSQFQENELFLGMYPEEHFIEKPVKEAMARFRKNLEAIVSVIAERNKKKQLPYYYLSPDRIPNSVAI
Source text: (§1) In vitro evaluation of the ability of a composition to inhibit the enzymes 5-lipoxygenase, 15-lipoxygenase, or 12/15 lipoxygenase as described in Walidge, N. B. et al Anal. Biochem., 231: 354-358 (1995) using a high throughput colorimetric method; as well as in vitro evaluation of inhibiting LTB4 is described in Examples.
This procedure was used for measuring the enzymatic activity of human recombinant 5-lipoxygenase using a colorimetric method based on the ferric oxidation of xylenol orange.
(§2) • 96 well flat bottom microfilter plates (VWR, Catalog #62402-933 9295) • Lipoxygenase screening assay buffer (Cayman, Catalog #760710) • Human recombinant 5-lipoxygenase (Cayman, Catalog #60402) • Arachidonic Acid (Sigma, Catalog #A3555) • Xylenol orange tetrasodium salt (Aldrich, Catalog #227854) • Iron (II) sulfate heptahydrate (Sigma, Catalog #F7002) • Sulfuric acid (95-98%) [18M]—Methanol Procedure
(§3) Human recombinant 5-lipoxygenase (Cayman Cat #60402) was used in this assay. The test compound and/or vehicle was added to 0.51-1 5-lipoxygenase in 50 mM Tris-HCl buffer, pH 7.4. The reaction was initiated by addition of 70 μM arachidonic acid in Tris-HCl buffer, pH 7.4, and terminated after a 10 minute incubation at room temperature by addition of FOX reagent (25 mM sulphuric acid, 100 μM xylenol orange, 100 μM iron (II) sulphate, methanol:water 9:1). The yellow color of acidified xylenol orange was converted to a blue color by the lipid hydroperoxide-mediated oxidation of Fe 2+ ions and the interaction of the resulting Fe 3+ ions with the dye. The complex was allowed to form during a 1 hour incubation at room temperature with shaking. Absorbance of the Fe 3+ complex was then measured at […] using a spectrophotometer.
(§4) Negative controls contained enzyme during the incubation step but substrate was not added until after the FOX reagent.
Compounds were screened at 5 concentrations in triplicate starting at 10 μM

[3] = biological target: T2, porcine leukocyte 12/15-lipoxygenase (Sus scrofa, UniProt P16469); assay: 12/15-Lipoxygenase enzyme assay; assay type: biochemical; settings: 70 μM arachidonic acid, pH 7.4, 10 minute incubation; read-out: IC50, inhibition of 12/15-Lipoxygenase
T2 construct: purchased Cayman 60300
T2 sequence (P16469 1-663): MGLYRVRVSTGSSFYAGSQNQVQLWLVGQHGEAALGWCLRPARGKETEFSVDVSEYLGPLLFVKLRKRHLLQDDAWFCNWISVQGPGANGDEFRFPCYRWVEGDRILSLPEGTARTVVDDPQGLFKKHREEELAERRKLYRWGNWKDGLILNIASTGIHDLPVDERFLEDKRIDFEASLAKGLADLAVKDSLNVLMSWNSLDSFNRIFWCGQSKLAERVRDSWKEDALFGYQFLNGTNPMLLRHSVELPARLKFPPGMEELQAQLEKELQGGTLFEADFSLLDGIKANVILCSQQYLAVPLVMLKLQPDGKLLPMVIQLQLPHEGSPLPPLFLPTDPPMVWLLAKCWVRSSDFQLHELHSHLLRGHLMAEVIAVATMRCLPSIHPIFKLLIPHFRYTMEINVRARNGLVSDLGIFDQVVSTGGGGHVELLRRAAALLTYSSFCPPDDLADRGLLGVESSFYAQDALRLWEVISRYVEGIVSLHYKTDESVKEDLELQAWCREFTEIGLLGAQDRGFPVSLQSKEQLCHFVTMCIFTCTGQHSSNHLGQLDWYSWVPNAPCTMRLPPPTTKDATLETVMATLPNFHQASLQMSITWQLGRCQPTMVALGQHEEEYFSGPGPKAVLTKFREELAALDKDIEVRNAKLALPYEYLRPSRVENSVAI
Source text: as §1
This procedure was used for measuring the enzymatic activity of porcine leukocyte 12/15-lipoxygenase using a colorimetric method based on the ferric oxidation of xylenol orange.
as §2, with “Porcine leukocyte 12/15-lipoxygenase” for “Human recombinant 5-lipoxygenase”, “#60300)” for “#60402)”, “[18M] • Methanol” for “[18M]—Methanol”
as §3, with “Porcine Leukocyte 12/15-lipoxygenase” for “Human recombinant 5-lipoxygenase”, “#60300)” for “#60402)”, “Test” for “The test”, “1.3 U 12/15-lipoxygenase” for “0.51-1 5-lipoxygenase”
as §4
Compounds are screened at 5 concentrations in triplicate starting at 10 μM

[4] = test system: dopaminergic neuronal cell line; assay: High glutamate-induced oxidative stress assay (HGOS); assay type: cell-based; settings: Mus musculus; 30 mM glutamate, 16 hrs; read-out: EC50, protection against HGOS cell injury and cell death
Source text: Protection against redox stress can be evaluated in cell culture using high glutamate induced oxidative stress (HGOS) in mouse dopaminergic cell lines. The cytotoxic effect of glutamate is not due to excitotoxicity, as this cell line is devoid of inotropic glutamate receptors. Rather, the glutamate-induced toxicity of dopaminergic cells is associated with an inhibition of cystine transport which subsequently leads to depletion of intracellular glutathione (GSH) levels (Murphy T. H., et al. Neuron 2, 1547-1558, 1989), activation of neuronal 12-lipoxygenase (Li, Y. et al., Neuron 19, 453-463, 1997), increased ROS production (Tan S. et al., J. Cell Biol. 141, 1423-1432, 1998) and elevated intracellular Cat^2+ (Li, Y. et al., see supra). Some molecules were measured for their ability to protect cells against glutamate-induced stress and the assay is detailed in Examples.
This procedure was used to induce high glutamate-induced oxidative stress (HGOS) in a dopaminergic neuronal cell line. Using this assay the potency and efficacy of test articles against HGOS neuronal cell injury and cell death was established in a high throughput manner.
• Dopaminergic neuronal cell lines • DMEM-No Glucose (Life Technologies Cat #11966-025) • L-glutamine (Life Technologies Cat #25030-081) • L-glutamic acid, monosodium salt (Sigma Cat #G5889) • D-glucose (Sigma Cat #G-6151) • 10×HBSS buffer (pH 7.4) (950 ml Pyrogen-free water, 2.44 g/L MgCl2.6H20, 3.73 g/L KCl, 59.58 g/L Hepes, 58.44 g/L NaCl, 1.36 g/L KH2PO4, 1.91 g/L CaCl2.2H2O and pH to […] with HCl) • Cell Tracker Green fluorescent dye (Molecular Probes, Cat #2925). Prepare a 5NM solution in pre-warmed HBSS just prior to use. • Sterile 96-well plates precoated with poly-D-lysine (Corning Catalog #3665) • 96-well deep well mother plate, DyNA Block 1000 (VWR Catalog #40002-008) Neuronal Cells
The cells were seeded into 96-well plates at a density of 2000 per well and left to grow for 72 hours in a 33° C. incubator with 5% CO2 in air atmosphere. The passage number of the cells for each assay experiment were no later than p11 in order to minimize experimental variation.
All compounds were dissolved in DMEM-No Glu containing 1 mM glucose, 30 mM glutamate and 1× Pen/Strep. DMEM-No Glu with 1 mM glucose and 1× P/S was used as the negative control, DMEM-No Glucose with 1 mM glucose, […] glutamate was used as a positive control and 100 NM Glutathione was added to the positive control as a standard. All of the procedures for this involving the making and dilution of compounds were performed using aseptic conditions and with minimal light.
The plates were removed from the incubator and examined under the microscope for morphological appearance and density. Using an aseptic technique and an 8-channel aspirator the media was carefully removed from the cells and replaced with 200 μI of 1×HBSS. This was done as quickly as possible to prevent the cells drying out. The plates were then placed in the humidified 37° C. incubators of the Biomek 2000 Side Loader. Four plates were washed at a time so as to minimize the time that the cells were sitting in 1×HBSS prior to addition of the compound test solution. Experimental Setup
The Beckman Biomek workstations were used to load the compounds and controls from the mother plates onto the cell plates that were prewashed with HBSS under sterile conditions. The plates were incubated in the upper HTS incubator at 37° C. in 5% CO2 for exactly 16 hrs. The following day, using the Beckman Biomek workstations, the plates were removed from the incubator. Using Cell Tracker Addition, the compounds were removed from the plates, washed once with […] of pre-warmed 1×HBSS and then 100 μL of 5 μM Cell Tracker Green was added to each well. The plates were incubated at 37° C. for 30 min to allow the dye to enter the cell and be cleaved by the esterases. […]

| Compound | EC50 [1] [nM] | IC50 [2] [nM] | IC50 [3] [nM] | EC50 [4] [nM] |
| --- | --- | --- | --- | --- |
| Cc1cc(C2(C)CCc3c(C)c(O)c(C)c(C)c3O2)c(C)s1 (stereo not shown) [2-(2,5-Dimethyl-thiophen-3-yl)-2,5,7,8-tetramethyl-chroman-6-ol] | < 1000 | < 1000 | < 1000 | – |
| Cc1cc(C2(C)CCc3cc(O)c(C)c(C)c3O2)c(C)s1 (stereo not shown) [2-(2,5-Dimethyl-thiophen-3-yl)-2,7,8-trimethyl-chroman-6-ol] | < 1000 | < 1000 | – | – |
| Cc1c(C)c2c(c(-c3ccc(C(=O)O)cc3)c1O)CCC(C)(C)O2 [4-(6-Hydroxy-2,2,7,8-tetramethyl-chroman-5-yl)-benzoic acid] | < 1000 | – | – | < 5000 |
| Cc1c(C)c2c(c(-c3cccnc3)c1O)CCC(C)(C)O2 [2,2,7,8-Tetramethyl-5-pyridin-3-yl-chroman-6-ol] | < 1000 | – | – | < 5000 |
| Cc1c(C)c2c(c(-c3ccco3)c1O)CCC(C)(C)O2 [5-Furan-2-yl-2,2,7,8-tetramethyl-chroman-6-ol] | < 1000 | < 1000 | < 1000 | – |
| Cc1c(C)c2c(c(C)c1O)CCC(C)(c1cccs1)O2 (stereo not shown) [2,5,7,8-Tetramethyl-2-thiophen-2-yl-chroman-6-ol] | < 1000 | < 1000 | < 1000 | – |
| Cc1c(C)c2c(c(-c3cccc([N+](=O)[O-])c3)c1O)CCC(C)(C)O2 [2,2,7,8-Tetramethyl-5-(3-nitro-phenyl)-chroman-6-ol] | < 1000 | – | – | – |
